Several values for one entry are separate records, joined by “and”; a condition that tells them apart may be missing. Equal entries are not always repeated.
System: 292921-168-R tumor spheroid viability
Assay: Anticancer human tumor 292921-168-R patient-derived pancreatic carcinoma cell line growth inhibition
Settings: spheroids with HUVEC and MSC; for viability, T/C: stronger effect = lower value
In short: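 Complex spheroids of malignant cells with endothelial cells and mesenchymal stem cells; agents alone or combined, from near clinical Cmax (or 10 microM if unknown) down in half-log steps, 0.25% DMSO final.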
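Also: spheroids exposed to compounds for 7 days.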

O=C(c1cc(Cc2n[nH]c(=O)c3ccccc23)ccc1F)N1CCN(C(=O)C2CC2)CC1 + COc1cc2c(cc1O)CCNC21CSC2c3c(OC(C)=O)c(C)c4c(c3C(COC1=O)N1C(O)C3Cc5cc(C)c(OC)c(O)c5C(C21)N3C)OCO4
IC50 (curve of first compound, second compound 30 pM): 8.26 µM | IC50 (curve of first compound, second compound 94.9 pM): 7.07 µM | IC50 (curve of first compound, second compound 0.0003 µM): < 0.0949 µM | IC50 (curve of first compound, second compound 0.000949 µM): < 0.0949 µM | IC50 (curve of first compound, second compound 0.003 µM): < 0.0949 µM | viability, T/C (second compound 30 pM, first compound 0.0949 µM): 99.4% | viability, T/C (second compound 30 pM, first compound 0.3 µM): 103% | viability, T/C (second compound 30 pM, first compound 0.949 µM): 96.6% | viability, T/C (second compound 30 pM, first compound 3 µM): 91.9% | viability, T/C (second compound 30 pM, first compound 9.49 µM): 44.2% | viability, T/C (second compound 30 pM, first compound 30 µM): 21.8% | viability, T/C (second compound 94.9 pM, first compound 0.0949 µM): 94.8% | viability, T/C (second compound 94.9 pM, first compound 0.3 µM): 94% | viability, T/C (second compound 94.9 pM, first compound 0.949 µM): 88% | viability, T/C (second compound 94.9 pM, first compound 3 µM): 82.2% | viability, T/C (second compound 94.9 pM, first compound 9.49 µM): 38.9% | viability, T/C (second compound 94.9 pM, first compound 30 µM): 22.4% | viability, T/C (second compound 0.0003 µM, first compound 0.0949 µM): 48% | viability, T/C (second compound 0.0003 µM, first compound 0.3 µM): 41.3% | viability, T/C (second compound 0.0003 µM, first compound 0.949 µM): 38.6% | viability, T/C (second compound 0.0003 µM, first compound 3 µM): 34.3% | viability, T/C (second compound 0.0003 µM, first compound 9.49 µM): 10.7% | viability, T/C (second compound 0.0003 µM, first compound 30 µM): 13.2% | viability, T/C (second compound 0.000949 µM, first compound 0.0949 µM): 3.75% | viability, T/C (second compound 0.000949 µM, first compound 0.3 µM): 4.31% | viability, T/C (second compound 0.000949 µM, first compound 0.949 µM): 3.14% | viability, T/C (second compound 0.000949 µM, first compound 3 µM): 3.26% | viability, T/C (second compound 0.000949 µM, first compound 9.49 µM): 1.19% | viability, T/C (second compound 0.000949 µM, first compound 30 µM): 0.39% | viability, T/C (second compound 0.003 µM, first compound 0.0949 µM): 0.15% | viability, T/C (second compound 0.003 µM, first compound 0.3 µM): 0.13% | viability, T/C (second compound 0.003 µM, first compound 0.949 µM): 0.13% | viability, T/C (second compound 0.003 µM, first compound 3 µM): 0.23% | viability, T/C (second compound 0.003 µM, first compound 9.49 µM): 0.41% | viability, T/C (second compound 0.003 µM, first compound 30 µM): 1.31%

COc1cc(C)[nH]c(=O)c1CN1CCc2c(Cl)cc(C(OC)C3COC3)c(Cl)c2C1=O (configuration not stated) + Cn1nnc2c(C(N)=O)ncn2c1=O
IC50 (curve of first compound, second compound 1 µM): > 10 µM | IC50 (curve of first compound, second compound 3.16 µM): > 10 µM | IC50 (curve of first compound, second compound 10 µM): > 10 µM | IC50 (curve of first compound, second compound 31.6 µM): > 10 µM | IC50 (curve of first compound, second compound 100 µM): > 10 µM | viability, T/C (second compound 1 µM, first compound 0.0316 µM): 94.7% | viability, T/C (second compound 1 µM, first compound 0.1 µM): 94.7% | viability, T/C (second compound 1 µM, first compound 0.316 µM): 95.4% | viability, T/C (second compound 1 µM, first compound 1 µM): 88.7% | viability, T/C (second compound 1 µM, first compound 3.16 µM): 81.6% | viability, T/C (second compound 1 µM, first compound 10 µM): 72.6% | viability, T/C (second compound 3.16 µM, first compound 0.0316 µM): 102% | viability, T/C (second compound 3.16 µM, first compound 0.1 µM): 100% | viability, T/C (second compound 3.16 µM, first compound 0.316 µM): 93.6% | viability, T/C (second compound 3.16 µM, first compound 1 µM): 79.8% | viability, T/C (second compound 3.16 µM, first compound 3.16 µM): 88.2% | viability, T/C (second compound 3.16 µM, first compound 10 µM): 84.5% | viability, T/C (second compound 10 µM, first compound 0.0316 µM): 93.4% | viability, T/C (second compound 10 µM, first compound 0.1 µM): 87.4% | viability, T/C (second compound 10 µM, first compound 0.316 µM): 98% | viability, T/C (second compound 10 µM, first compound 1 µM): 80.2% | viability, T/C (second compound 10 µM, first compound 3.16 µM): 84.4% | viability, T/C (second compound 10 µM, first compound 10 µM): 75.2% | viability, T/C (second compound 31.6 µM, first compound 0.0316 µM): 91.5% | viability, T/C (second compound 31.6 µM, first compound 0.1 µM): 94.2% | viability, T/C (second compound 31.6 µM, first compound 0.316 µM): 89.4% | viability, T/C (second compound 31.6 µM, first compound 1 µM): 85.1% | viability, T/C (second compound 31.6 µM, first compound 3.16 µM): 78.5% | viability, T/C (second compound 31.6 µM, first compound 10 µM): 80.2% | viability, T/C (second compound 100 µM, first compound 0.0316 µM): 89.5% | viability, T/C (second compound 100 µM, first compound 0.1 µM): 91.1% | viability, T/C (second compound 100 µM, first compound 0.316 µM): 88.1% | viability, T/C (second compound 100 µM, first compound 1 µM): 78% | viability, T/C (second compound 100 µM, first compound 3.16 µM): 75.9% | viability, T/C (second compound 100 µM, first compound 10 µM): 82%

[2H]c1nc(C)nc([2H])c1-c1cc(NC[C@@H](C)c2cccc3c(C(=O)NC)ccnc23)ncn1
viability, T/C (compound 0.0316 µM): 106% and 103% (2×) | viability, T/C (compound 0.1 µM): 104% and 93.4% and 89.7% | viability, T/C (compound 0.316 µM): 104% and 100% and 97.8% | viability, T/C (compound 1 µM): 115% and 99.2% and 93.3% | viability, T/C (compound 3.16 µM): 113% and 101% and 96.8% | viability, T/C (compound 10 µM): 95.7% and 91.2% and 95.8% | IC50 (curve of compound): > 10 µM

From PubChem BioAssay AID1845196 (Molecular Pharmacology Branch, DTP, NCI, 2023)
